Assay results published in patent US20230104800A1, “COMBINATION THERAPIES AND BIOMARKERS FOR TREATING CANCER” (priority 2020, published 2023).

Test system: SHEP-MYCN-ER cells
Assay: FUCCI high-content live-cell imaging of cell cycle-related cell-killing activity
Type: cell-based, Human
Details: neuroblastoma SHEP-MYCN-ER cells with 200 nM 4-OHT (high MYCN), PC-002: 10 nM YM155, CHOP: 2 μM cyclophosphamide, 0.2 μM Doxorubicin, 8 nM vincristine, imaged every 20 min for 72 h
Procedure: Cultures were incubated at 37° C. in 5% CO2.
Mix each FUCCI Premo™ reagent (Thermo fisher, P36237) by inversion to ensure a homogenous solution. Add the mixed reagent to the SHEP-MYCN-ER cells in complete cell medium and mix gently. Return the cells to the culture incubator for over 16 hour.
High-content live-cell imaging analysis. After transfection, SHEP-MYCN-ER cells were incubated in complete cell medium with concentration indicated of different drugs (PC-002: 10 nM YM155, CHOP: 2 μM cyclophosphamide; 0.2 μM Doxorubicin; 8 nM vincristine). Cells were grown in Array Scan™ Live Cell Module and imaged every 20 min for 72 h under controlled growth conditions (CellInsight™ CX5 High-Content Screening (HSC) Platform, Thermo Fisher; Array Scan™ Live Cell Module, Thermo Fisher).
In the G1 phase of the cell cycle, geminin is broken down and only Cdtl tagged with RFP may be visualized, thus identifying cells in the G1 phase with red fluorescent nuclei. In the S, G2, and M phases, however, Cdt1 is degraded and only geminin tagged with GFP remains, thus identifying cells in these phases with green fluorescent nuclei. During the G1/S transition, both proteins are present in the cells, allowing GFP and RFP fluorescence to be observed—when green and red images are overlaid, the cells appear with yellow (orange) fluorescent nuclei. The dynamic color change from red-to-yellow, yellow-to-green or green-to-red represents the progression through cell cycle (live). The cell dead without color change represents the sensitivity to the drug (death).

## 1-(2-Methoxyethyl)-2-methyl-4,9-dioxo-3-(pyrazin-2-ylmethyl)-4,9-dihydro-1H-naphtho[2,3-d] imidazolium bromide [YM155]
FIG. 6A
  cancer cell-killing activity in the G1 phase of the cell cycle (dead vs live cells): not significantly
FIG. 6B
  cancer cell-killing activity in the S/G2 phase of the cell cycle (dead vs live cells): predominantly
FIG. 6C
  cancer cell-killing activity in the M phase of the cell cycle (dead vs live cells): not significantly
